Source: ChEMBL document CHEMBL3616440, “Non-basic azolotriazinone MCHR1 antagonists for the treatment of obesity: An empirical brain-exposures-driven candidate selection for in vivo efficacy studies” (Bioorg Med Chem Lett, 2015)

Columns and labels:
[1] = test system: Brain; assay: Free drug level in Sprague-Dawley rat brain assessed as 6-(5-chloropyridin-2-yl)-3-(4-((3,3-difluoro-1-hydroxycyclobutyl)methoxy)-3-methoxyphenyl)pyrrolo[1,2-f][1,2,4]triazin-4(3H)-one level at 10 mg/kg, po qd at 20 hrs; format: ADME, organism-based; conditions: in vivo
[2] = test system: Brain; assay: Drug concentration in Sprague-Dawley rat brain assessed as 6-(5-chloropyridin-2-yl)-3-(4-((3,3-difluoro-1-hydroxycyclobutyl)methoxy)-3-methoxyphenyl)pyrrolo[1,2-f][1,2,4]triazin-4(3H)-one level at 30 mg/kg, po qd at 20 hrs; format: ADME, organism-based; conditions: in vivo, read-out: Drug uptake
[3] = test system: Plasma; assay: Fraction unbound in Sprague-Dawley rat plasma assessed as 6-(5-chloropyridin-2-yl)-3-(4-((3,3-difluoro-1-hydroxycyclobutyl)methoxy)-3-methoxyphenyl)pyrrolo[1,2-f][1,2,4]triazin-4(3H)-one level; format: ADME, cell-free
[4] = test system: Brain; assay: Drug concentration in Sprague-Dawley rat brain assessed as 6-(5-chloropyridin-2-yl)-3-(4-((3,3-difluoro-1-hydroxycyclobutyl)methoxy)-3-methoxyphenyl)pyrrolo[1,2-f][1,2,4]triazin-4(3H)-one level at 3 mg/kg, po qd at 20 hrs; format: ADME, organism-based; conditions: in vivo, read-out: Drug uptake
[5] = Ratio of free drug level in brain of Sprague-Dawley rat assessed as 6-(5-chloropyridin-2-yl)-3-(4-((3,3-difluoro-1-hydroxycyclobutyl)methoxy)-3-methoxyphenyl)pyrrolo[1,2-f][1,2,4]triazin-4(3H)-one level at 30 mg/kg, po to Ki for rat MCHR1; format: ADME, organism-based; conditions: in vivo
[6] = test system: Brain; assay: Drug concentration in Sprague-Dawley rat brain assessed as 6-(5-chloropyridin-2-yl)-3-(4-((3,3-difluoro-1-hydroxycyclobutyl)methoxy)-3-methoxyphenyl)pyrrolo[1,2-f][1,2,4]triazin-4(3H)-one level at 10 mg/kg, po qd at 8 hrs; format: ADME, organism-based; conditions: in vivo, read-out: Drug uptake
[7] = test system: Nucleic Acid; assay: Ratio of drug level in Sprague-Dawley rat brain to plasma assessed as 6-(5-chloropyridin-2-yl)-3-(4-((3,3-difluoro-1-hydroxycyclobutyl)methoxy)-3-methoxyphenyl)pyrrolo[1,2-f][1,2,4]triazin-4(3H)-one level at 10 mg/kg, po qd; format: ADME, organism-based
[8] = test system: Rattus norvegicus; assay: Antiobesity activity in Sprague-Dawley rat assessed as body weight reduction at 10 mg/kg, po qd after 4 days relative to control; format: functional; conditions: 96 h
[9] = test system: Brain; assay: Free drug level in Sprague-Dawley rat brain assessed as 6-(5-chloropyridin-2-yl)-3-(4-((3,3-difluoro-1-hydroxycyclobutyl)methoxy)-3-methoxyphenyl)pyrrolo[1,2-f][1,2,4]triazin-4(3H)-one level at 30 mg/kg, po qd at 20 hrs; format: ADME, organism-based; conditions: in vivo
[10] = test system: Plasma; assay: Plasma concentration in Sprague-Dawley rat assessed as 6-(5-chloropyridin-2-yl)-3-(4-((3,3-difluoro-1-hydroxycyclobutyl)methoxy)-3-methoxyphenyl)pyrrolo[1,2-f][1,2,4]triazin-4(3H)-one level at 10 mg/kg, po qd at 8 hrs; format: ADME, organism-based; conditions: in vivo
[11] = test system: Brain; assay: Drug concentration in Sprague-Dawley rat brain assessed as 6-(5-chloropyridin-2-yl)-3-(4-((3,3-difluoro-1-hydroxycyclobutyl)methoxy)-3-methoxyphenyl)pyrrolo[1,2-f][1,2,4]triazin-4(3H)-one level at 10 mg/kg, po qd at 20 hrs; format: ADME, organism-based; conditions: in vivo, read-out: Drug uptake
[12] = Ratio of free drug level in brain of Sprague-Dawley rat assessed as 6-(5-chloropyridin-2-yl)-3-(4-((3,3-difluoro-1-hydroxycyclobutyl)methoxy)-3-methoxyphenyl)pyrrolo[1,2-f][1,2,4]triazin-4(3H)-one level at 3 mg/kg, po to Ki for rat MCHR1; format: ADME, organism-based; conditions: in vivo
[13] = test system: Rattus norvegicus; assay: Antiobesity activity in Sprague-Dawley rat assessed as body weight reduction at 30 mg/kg, po qd after 4 days relative to control; format: functional; conditions: 96 h
[14] = test system: Brain; assay: Free drug level in Sprague-Dawley rat brain assessed as 6-(5-chloropyridin-2-yl)-3-(4-((3,3-difluoro-1-hydroxycyclobutyl)methoxy)-3-methoxyphenyl)pyrrolo[1,2-f][1,2,4]triazin-4(3H)-one level at 3 mg/kg, po qd at 20 hrs; format: ADME, organism-based; conditions: in vivo
[15] = test system: Rattus norvegicus; assay: Antiobesity activity in Sprague-Dawley rat assessed as body weight reduction at 3 mg/kg, po qd after 4 days relative to control; format: functional; conditions: 96 h
[16] = Ratio of free drug level in brain of Sprague-Dawley rat assessed as 6-(5-chloropyridin-2-yl)-3-(4-((3,3-difluoro-1-hydroxycyclobutyl)methoxy)-3-methoxyphenyl)pyrrolo[1,2-f][1,2,4]triazin-4(3H)-one level at 10 mg/kg, po to Ki for rat MCHR1; format: ADME, organism-based; conditions: in vivo
[17] = test system: Brain; assay: Free drug level in Sprague-Dawley rat brain assessed as 6-(4-chlorophenyl)-3-(4-(2-cyclopropyl-2-hydroxyethoxy)-3-methoxyphenyl)pyrrolo[1,2-f][1,2,4]triazin-4(3H)-one level at 3 mg/kg, po qd at 20 hrs; format: ADME, organism-based; conditions: in vivo
[18] = Ratio of free drug level in brain of Sprague-Dawley rat assessed as 6-(4-chlorophenyl)-3-(4-(2-cyclopropyl-2-hydroxyethoxy)-3-methoxyphenyl)pyrrolo[1,2-f][1,2,4]triazin-4(3H)-one level at 10 mg/kg, po to Ki for rat MCHR1; format: ADME, organism-based; conditions: in vivo
[19] = test system: Brain; assay: Drug concentration in Sprague-Dawley rat brain assessed as 6-(4-chlorophenyl)-3-(4-(2-cyclopropyl-2-hydroxyethoxy)-3-methoxyphenyl)pyrrolo[1,2-f][1,2,4]triazin-4(3H)-one level at 30 mg/kg, po qd at 20 hrs; format: ADME, organism-based; conditions: in vivo, read-out: Drug uptake
[20] = test system: Brain; assay: Drug concentration in Sprague-Dawley rat brain assessed as 6-(4-chlorophenyl)-3-(4-(2-cyclopropyl-2-hydroxyethoxy)-3-methoxyphenyl)pyrrolo[1,2-f][1,2,4]triazin-4(3H)-one level at 3 mg/kg, po qd at 20 hrs; format: ADME, organism-based; conditions: in vivo, read-out: Drug uptake
[21] = test system: Nucleic Acid; assay: Ratio of drug level in Sprague-Dawley rat brain to plasma assessed as 6-(4-chlorophenyl)-3-(4-(2-cyclopropyl-2-hydroxyethoxy)-3-methoxyphenyl)pyrrolo[1,2-f][1,2,4]triazin-4(3H)-one level at 10 mg/kg, po qd; format: ADME, organism-based
[22] = test system: Brain; assay: Free drug level in Sprague-Dawley rat brain assessed as 6-(4-chlorophenyl)-3-(4-(2-cyclopropyl-2-hydroxyethoxy)-3-methoxyphenyl)pyrrolo[1,2-f][1,2,4]triazin-4(3H)-one level at 30 mg/kg, po qd at 20 hrs; format: ADME, organism-based; conditions: in vivo
[23] = Ratio of free drug level in brain of Sprague-Dawley rat assessed as 6-(4-chlorophenyl)-3-(4-(2-cyclopropyl-2-hydroxyethoxy)-3-methoxyphenyl)pyrrolo[1,2-f][1,2,4]triazin-4(3H)-one level at 3 mg/kg, po to Ki for rat MCHR1; format: ADME, organism-based; conditions: in vivo
[24] = Ratio of free drug level in brain of Sprague-Dawley rat assessed as 6-(4-chlorophenyl)-3-(4-(2-cyclopropyl-2-hydroxyethoxy)-3-methoxyphenyl)pyrrolo[1,2-f][1,2,4]triazin-4(3H)-one level at 30 mg/kg, po to Ki for rat MCHR1; format: ADME, organism-based; conditions: in vivo
[25] = test system: Brain; assay: Free drug level in Sprague-Dawley rat brain assessed as 6-(4-chlorophenyl)-3-(4-(2-cyclopropyl-2-hydroxyethoxy)-3-methoxyphenyl)pyrrolo[1,2-f][1,2,4]triazin-4(3H)-one level at 10 mg/kg, po qd at 20 hrs; format: ADME, organism-based; conditions: in vivo
[26] = test system: Brain; assay: Drug concentration in Sprague-Dawley rat brain assessed as 6-(4-chlorophenyl)-3-(4-(2-cyclopropyl-2-hydroxyethoxy)-3-methoxyphenyl)pyrrolo[1,2-f][1,2,4]triazin-4(3H)-one level at 10 mg/kg, po qd at 8 hrs; format: ADME, organism-based; conditions: in vivo, read-out: Drug uptake
[27] = test system: Brain; assay: Drug concentration in Sprague-Dawley rat brain assessed as 6-(4-chlorophenyl)-3-(4-(2-cyclopropyl-2-hydroxyethoxy)-3-methoxyphenyl)pyrrolo[1,2-f][1,2,4]triazin-4(3H)-one level at 10 mg/kg, po qd at 20 hrs; format: ADME, organism-based; conditions: in vivo, read-out: Drug uptake
[28] = test system: Plasma; assay: Plasma concentration in Sprague-Dawley rat assessed as 6-(4-chlorophenyl)-3-(4-(2-cyclopropyl-2-hydroxyethoxy)-3-methoxyphenyl)pyrrolo[1,2-f][1,2,4]triazin-4(3H)-one level at 10 mg/kg, po qd at 8 hrs; format: ADME, organism-based; conditions: in vivo
[29] = test system: Plasma; assay: Fraction unbound in Sprague-Dawley rat plasma assessed as 6-(4-chlorophenyl)-3-(4-(2-cyclopropyl-2-hydroxyethoxy)-3-methoxyphenyl)pyrrolo[1,2-f][1,2,4]triazin-4(3H)-one level; format: ADME, cell-free
[30] = test system: Plasma; assay: Plasma concentration in Sprague-Dawley rat assessed as (S)-6-(5-chloropyridin-2-yl)-3-(4-(3-(ethylsulfonyl)-2-hydroxypropoxy)-3-methoxyphenyl)pyrrolo[1,2-f][1,2,4]triazin-4(3H)-one level at 10 mg/kg, po qd at 8 hrs; format: ADME, organism-based; conditions: in vivo
[31] = test system: Brain; assay: Drug concentration in Sprague-Dawley rat brain assessed as (S)-6-(5-chloropyridin-2-yl)-3-(4-(3-(ethylsulfonyl)-2-hydroxypropoxy)-3-methoxyphenyl)pyrrolo[1,2-f][1,2,4]triazin-4(3H)-one level at 10 mg/kg, po qd at 8 hrs; format: ADME, organism-based; conditions: in vivo, read-out: Drug uptake
[32] = test system: Nucleic Acid; assay: Ratio of drug level in Sprague-Dawley rat brain to plasma assessed as (S)-6-(5-chloropyridin-2-yl)-3-(4-(3-(ethylsulfonyl)-2-hydroxypropoxy)-3-methoxyphenyl)pyrrolo[1,2-f][1,2,4]triazin-4(3H)-one level at 10 mg/kg, po qd; format: ADME, organism-based

Compound: COc1cc(-n2cnn3cc(-c4ccc(Cl)cn4)cc3c2=O)ccc1OCC1(OC(=O)CN)CC(F)(F)C1
- Drug uptake(free) [1]: 616 nM
- concentration [2]: 23.9 µM
- Fu [3]: <= 0.1%
- concentration [4]: 3.87 µM
- Ratio [5]: <= 3.7
- concentration [6]: 3.59 µM
- BPR [7]: 0.6
- inhibition in vivo at 10 mg/kg [8]: 4.4%
- Drug uptake(free) [9]: 624 nM
- concentration [10]: 5.59 µM
- concentration [11]: 16 µM
- Ratio [12]: <= 0.6
- inhibition in vivo at 30 mg/kg [13]: 13%
- Drug uptake(free) [14]: 63.9 nM
- inhibition in vivo at 3 mg/kg [15]: 1.6%
- Ratio [16]: <= 2.5

Compound: COc1cc(-n2cnn3cc(-c4ccc(Cl)cc4)cc3c2=O)ccc1OCC(OC(=O)[C@@H](N)C(C)C)C1CC1 (stereo not given in full)
- Drug uptake(free) [17]: 10 nM
- Ratio [18]: 8.6
- concentration [19]: 14.8 µM
- concentration [20]: 3.42 µM
- inhibition in vivo at 10 mg/kg [8]: 0%
- BPR [21]: 3
- Drug uptake(free) [22]: 44 nM
- Ratio [23]: 3.6
- Ratio [24]: 16
- Drug uptake(free) [25]: 24 nM
- inhibition in vivo at 30 mg/kg [13]: 2.5%
- concentration [26]: 3.74 µM
- inhibition in vivo at 3 mg/kg [15]: 0%
- concentration [27]: 7.98 µM
- concentration [28]: 1.25 µM
- Fu [29]: 0.3%

Compound: CCS(=O)(=O)C[C@H](COc1ccc(-n2cnn3cc(-c4ccc(Cl)cn4)cc3c2=O)cc1OC)OC(=O)CN
- concentration [30]: 15.6 µM
- concentration [31]: 0.401 µM
- BPR [32]: 0.03
